Measured values taken from DBAASP.
In brackets after ≈: the same amount, converted by molar mass.

How the values were obtained:
Test in all cases: ≥ marks a high value that may be exact or a test limit, other limits are often not marked, values filed in µg/mL are converted to µM
[1] = system: Candida albicans ATCC 90028
[2] = system: Staphylococcus aureus ATCC 43300
Escherichia coli K-12 = system: Escherichia coli K-12
[3] = system: Klebsiella pneumoniae ATCC 700603
[4] = system: Escherichia coli ATCC 25922
[5] = system: Staphylococcus aureus JE2
[6] = system: Acinetobacter baumannii ATCC 19606
[7] = system: Pseudomonas aeruginosa ATCC 27853
[8] = system: Cryptococcus neoformans var. grubii H99
[9] = system: Batrachochytrium dendrobatidis
Escherichia coli C600 = system: Escherichia coli C600
[10] = system: Bacillus subtilis VKM B-501
[11] = system: Staphylococcus aureus 209P
[12] = system: Enterococcus faecium CCT 5079
[13] = system: Salmonella enterica subsp. enterica serovar Choleraesuis ATCC 10708
[14] = system: Staphylococcus epidermidis ATCC 12228
[15] = system: Staphylococcus aureus ATCC 25923
[16] = system: Salmonella enterica subsp. enterica serovar Typhimurium ATCC 14028
[17] = system: Escherichia coli ATCC 11775
[18] = system: Staphylococcus aureus CCT 2580
[19] = system: Streptococcus mutans AU159
[20] = system: Escherichia coli CCT 1457
[21] = system: Bacillus cereus ATCC 11778
[22] = system: Staphylococcus aureus CCT 6538
[23] = system: Bacillus thuringiensis ATCC 10792
[24] = system: Micrococcus luteus ATCC 4698
[25] = system: Pseudomonas aeruginosa ATCC 13388
[26] = system: Streptococcus pneumoniae ATCC 11733
[27] = system: Enterococcus hirae ATCC 10541
[28] = system: Pseudomonas aeruginosa ATCC 15422

SMILES: CC[C@H](C)[C@H](NC(=O)[C@@H](NC(=O)[C@H](CO)NC(=O)[C@H](C)NC(=O)[C@@H](NC(=O)[C@H](CCCCN)NC(=O)[C@H](CCCCN)NC(=O)[C@@H](NC(=O)[C@@H](NC(=O)[C@H](CC(=O)O)NC(=O)[C@H](Cc1c[nH]c2ccccc12)NC(=O)[C@H](CC(C)C)NC(=O)CN)C(C)C)[C@@H](C)CC)C(C)C)C(C)C)C(=O)NCC(=O)NCC(=O)N[C@@H](CC(C)C)C(=O)O [GLWDVIKKVASVIGGL]
- MIC [1]: 19.3 µM (≈ 32 µg/mL)
- MIC [2]: 2.42 µM (≈ 4 µg/mL)
- MIC (Escherichia coli K-12): 9.67 µM (≈ 16 µg/mL)
- MIC [3]: > 19.3 µM
- MIC [4]: > 19.3 µM
- MIC [5]: 4.83 µM (≈ 8 µg/mL)
- MIC [6]: 9.67 µM (≈ 16 µg/mL)
- MIC [7]: > 19.3 µM
- MIC [8]: 4.83 µM (≈ 8 µg/mL)

SMILES: CC[C@H](C)[C@H](NC(=O)[C@H](CC(C)C)NC(=O)[C@@H]1CCCN1C(=O)[C@H](CC(C)C)NC(=O)[C@H](CCCCN)NC(=O)[C@H](CCCCN)NC(=O)[C@H](Cc1ccccc1)NC(=O)[C@H](CC(C)C)NC(=O)[C@H](CCCCN)NC(=O)[C@H](Cc1c[nH]c2ccccc12)NC(=O)[C@@H](N)CCCCN)C(=O)NCC(=O)N[C@@H](CCCN=C(N)N)C(=O)N[C@H](C(=O)N[C@@H](CC(C)C)C(N)=O)C(C)C [KWKLFKKLPLIGRVL]
- MIC [9]: ≥ 100 µM

SMILES: CC[C@H](C)[C@H](NC(=O)[C@H](C)NC(=O)[C@H](CCCCN)NC(=O)[C@H](CCCN=C(N)N)NC(=O)CNC(=O)[C@H](Cc1ccccc1)NC(=O)[C@H](CCCCN)NC(=O)[C@H](CCCCN)NC(=O)[C@H](CCC(N)=O)NC(=O)[C@H](CC(C)C)NC(=O)[C@H](CCCCN)NC(=O)CNC(=O)[C@H](Cc1ccccc1)NC(=O)[C@H](CC(C)C)NC(=O)CN)C(=O)N[C@@H](CO)C(=O)N[C@@H](Cc1ccc(O)cc1)C(=O)N[C@@H](C)C(=O)N[C@H](C(=O)N[C@@H](CCCCN)C(=O)N[C@@H](CCCCN)C(=O)N[C@@H](C)C(=O)N[C@@H](CCCN=C(N)N)C(=O)NCC(=O)N[C@@H](CCCCN)C(=O)N[C@@H](Cc1cnc[nH]1)C(=O)O)C(C)C [GLFGKLQKKFGRKAISYAVKKARGKH]
- MIC (Escherichia coli C600): 6 µM (≈ 17.5 µg/mL)
- MIC [10]: 1.5 µM (≈ 4.38 µg/mL)
- MIC [11]: ≥ 36 µM

SMILES: CC(C)C[C@H](NC(=O)[C@H](CCCN=C(N)N)NC(=O)[C@H](CCCCN)NC(=O)[C@H](CCCCN)NC(=O)[C@H](CC(C)C)NC(=O)[C@H](CC(N)=O)NC(=O)[C@H](C)NC(=O)[C@H](Cc1ccccc1)NC(=O)[C@H](CCCN=C(N)N)NC(=O)[C@H](CCCN=C(N)N)NC(=O)[C@H](CCCCN)NC(=O)[C@H](Cc1ccccc1)NC(=O)[C@H](CO)NC(=O)[C@H](C)NC(=O)CNC(=O)[C@H](Cc1ccccc1)NC(=O)[C@H](CCCCN)NC(=O)[C@H](CCCCN)NC(=O)[C@H](Cc1ccccc1)NC(=O)[C@H](Cc1ccc(O)cc1)NC(=O)[C@H](CCC(=O)O)NC(=O)[C@H](CCCCN)NC(=O)[C@H](CCCN=C(N)N)NC(=O)[C@H](CCCCN)NC(=O)CNC(=O)[C@H](Cc1ccccc1)NC(=O)[C@H](Cc1ccccc1)NC(=O)CN)C(N)=O [GFFGKRKEYFKKFGASFKRRFANLKKRL]
- MIC (Escherichia coli C600): 1.5 µM (≈ 5.18 µg/mL)
- MIC [10]: 0.7 µM (≈ 2.42 µg/mL)
- MIC [11]: 6 µM (≈ 20.7 µg/mL)

SMILES: CC(C)C[C@H](NC(=O)CN)C(=O)N[C@@H](CC(C)C)C(=O)N[C@@H](C)C(=O)N[C@@H](CO)C(=O)N[C@@H](CC(C)C)C(=O)NCC(=O)N[C@@H](CCCCN)C(=O)N[C@H](C(=O)N[C@@H](Cc1ccccc1)C(=O)NCC(=O)NCC(=O)N[C@@H](Cc1ccc(O)cc1)C(=O)N[C@@H](CC(C)C)C(=O)N[C@@H](C)C(=O)N[C@@H](CCC(=O)O)C(=O)N[C@@H](CCCCN)C(=O)N[C@@H](CC(C)C)C(=O)N[C@@H](CCCCN)C(=O)N1CCC[C@H]1C(=O)N[C@@H](CCCCN)C(=O)O)C(C)C [GLLASLGKVFGGYLAEKLKPK]
- MIC [9]: ≥ 200 µM

SMILES: CC[C@H](C)[C@H](N)C(=O)N[C@@H](CC(N)=O)C(=O)N[C@@H](Cc1c[nH]c2ccccc12)C(=O)N[C@@H](CC(C)C)C(=O)N[C@@H](CCCCN)C(=O)N[C@H](C(=O)N[C@@H](CCCCN)C(=O)N[C@@H](CCCCN)C(=O)N[C@@H](CCCCN)C(=O)N[C@H](C(=O)N[C@@H](C)C(=O)NCC(=O)N[C@@H](CCSC)C(=O)N[C@@H](CC(C)C)C(N)=O)C(C)C)[C@@H](C)CC [INWLKIKKKVAGML]
- MIC [12]: 4.87 µM (≈ 8 µg/mL)
- MIC [13]: ≥ 304 µM
- MIC [14]: 2.44 µM (≈ 4 µg/mL)
- MIC [15]: 1.22 µM (≈ 2 µg/mL)
- MIC [16]: 18.9 µM (≈ 31 µg/mL)
- MIC [1]: ≥ 38.1 µM
- MIC [17]: 18.9 µM (≈ 31 µg/mL)
- MIC [18]: 4.87 µM (≈ 8 µg/mL)
- MIC [19]: 2.44 µM (≈ 4 µg/mL)
- MIC [20]: 4.87 µM (≈ 8 µg/mL)
- MIC [21]: ≥ 152 µM
- MIC [22]: 18.9 µM (≈ 31 µg/mL)
- MIC [23]: ≥ 76.1 µM
- MIC [4]: 18.9 µM (≈ 31 µg/mL)
- MIC [24]: 2.44 µM (≈ 4 µg/mL)
- MIC [25]: ≥ 152 µM
- MIC [26]: 1.22 µM (≈ 2 µg/mL)
- MIC [27]: 18.9 µM (≈ 31 µg/mL)
- MIC [28]: ≥ 76.1 µM

SMILES: CC[C@H](C)[C@H](NC(=O)[C@@H](NC(=O)[C@H](CO)NC(=O)[C@H](C)NC(=O)[C@@H](NC(=O)[C@H](CCCCN)NC(=O)[C@H](CCCN=C(N)N)NC(=O)[C@@H](NC(=O)[C@@H](NC(=O)[C@H](CCCN=C(N)N)NC(=O)[C@H](Cc1c[nH]c2ccccc12)NC(=O)[C@H](CC(C)C)NC(=O)CN)C(C)C)[C@@H](C)CC)C(C)C)C(C)C)C(=O)NCC(=O)NCC(=O)N[C@@H](CC(C)C)C(=O)O [GLWRVIRKVASVIGGL]
- MIC [1]: 18.6 µM (≈ 32 µg/mL)
- MIC [2]: 2.32 µM (≈ 4 µg/mL)
- MIC (Escherichia coli K-12): 18.6 µM (≈ 32 µg/mL)
- MIC [3]: 4.64 µM (≈ 8 µg/mL)
- MIC [4]: 2.32 µM (≈ 4 µg/mL)
- MIC [5]: 9.28 µM (≈ 16 µg/mL)
- MIC [6]: 1.16 µM (≈ 2 µg/mL)
- MIC [7]: > 18.6 µM
- MIC [8]: 1.16 µM (≈ 2 µg/mL)

SMILES: CC[C@H](C)[C@H](N)C(=O)N[C@@H](CC(N)=O)C(=O)N[C@@H](Cc1c[nH]c2ccccc12)C(=O)N[C@@H](CCCCN)C(=O)N[C@@H](CCCCN)C(=O)N[C@H](C(=O)N[C@@H](CCCCN)C(=O)N[C@@H](CCCCN)C(=O)N[C@@H](CCCCN)C(=O)N[C@H](C(=O)N[C@@H](C)C(=O)NCC(=O)N[C@@H](CCSC)C(=O)N[C@@H](CC(C)C)C(N)=O)C(C)C)[C@@H](C)CC [INWKKIKKKVAGML]
- MIC [12]: 1.21 µM (≈ 2 µg/mL)
- MIC [13]: 18.7 µM (≈ 31 µg/mL)
- MIC [14]: 0.604 µM (≈ 0.999 µg/mL)
- MIC [15]: 1.21 µM (≈ 2 µg/mL)
- MIC [16]: 2.41 µM (≈ 4 µg/mL)
- MIC [17]: 2.41 µM (≈ 4 µg/mL)
- MIC [18]: 1.21 µM (≈ 2 µg/mL)
- MIC [19]: 2.41 µM (≈ 4 µg/mL)
- MIC [20]: 2.41 µM (≈ 4 µg/mL)
- MIC [21]: 18.7 µM (≈ 31 µg/mL)
- MIC [22]: 2.41 µM (≈ 4 µg/mL)
- MIC [23]: 18.7 µM (≈ 31 µg/mL)
- MIC [4]: 9.66 µM (≈ 16 µg/mL)
- MIC [24]: 0.604 µM (≈ 0.999 µg/mL)
- MIC [25]: 2.41 µM (≈ 4 µg/mL)
- MIC [26]: 0.604 µM (≈ 0.999 µg/mL)
- MIC [27]: 18.7 µM (≈ 31 µg/mL)
- MIC [28]: 4.83 µM (≈ 8 µg/mL)
